Measured values from patent US20170319570A1, “Treatment of Multiple Sclerosis With Combination of Laquinimod and Dimethyl Fumarate” (Teva Pharmaceutical Industries, Ltd., priority 2012, published 2017).

Key:
[1] = system: MOG-induced EAE; test: MOG-induced EAE, laquinimod alone or with add on DMF (Example 1A); format: in vivo, mouse; settings: oral QD
[2] = system: MOG peptide induced EAE; settings: cited from earlier work
[3] = system: RRMS patients; settings: Phase 2B trial; cited from earlier work
[4] = system: MOG induced EAE; test: MOG-induced EAE, laquinimod in combination with DMF (Example 1B); format: in vivo, mouse; settings: Day 1 to 30, dead or moribund/total
[5] = in vivo; cited from earlier work

| SMILES | effectiveness on disease severity [1] | plasma levels of IL-10 ([2]; MOG peptide induced EAE) | glial inflammation ([2]; during MOG peptide induced EAE) | annualized relapse rate [3] | new gadolinium enhancing lesions, T1 and T2 lesions [3] | Mortality ([4]; Group 2: laquinimod 5 mg/kg/day gavage qd) | Mortality ([4]; Group 3: laquinimod 10 mg/kg/day gavage qd) | Mortality ([4]; Group 4: laquinimod 25 mg/kg/day gavage qd) | effectiveness on disease severity ([1]; 0.06 mg/kg laquinimod alone) | oral bioavailability [5] |
| --- | --- | --- | --- | --- | --- | --- | --- | --- | --- | --- |
| COC(=O)/C=C/C(=O)OC [DMF, Dimethyl (E)-but-2-Enedioate] | moderately effective | increased | reduced | non-significant decrease | significant decreases | – | – | – | – | – |
| CCN(C(=O)c1c(O)c2c(Cl)cccc2n(C)c1=O)c1ccccc1 [Laquinimod] | – | – | – | – | – | 0/15 | 0/15 | 0/15 | moderately effective | high |
